Results reported in ChEMBL document CHEMBL1144686, “Solid-phase synthesis of new pyrrolobenzodiazepine-chalcone conjugates: DNA-binding affinity and anticancer activity” (2008).

How the values were obtained:
[1] = system: DNA; experiment: Binding affinity to calf thymus DNA at pH 7.0 at 20 uM by thermal denaturation assay; format: nucleic-acid assay; conditions: Bos taurus
[2] = system: DNA; experiment: Binding affinity to calf thymus DNA at pH 7.0 at 20 uM after 18 hrs by thermal denaturation assay; format: nucleic-acid assay; conditions: Bos taurus
[3] = system: L1210; experiment: Cytotoxicity against mouse L1210 cells; format: functional; conditions: read-out: LC50 (the source's name)
[4] = system: PC-6; experiment: Cytotoxicity against human PC6 cells; format: functional; conditions: read-out: LD50 (the source's name)
[5] = system: CCRF-CEM; experiment: Growth inhibition of human CCRF-CEM cells; format: functional
[6] = system: HL-60; experiment: Growth inhibition of human HL60(TB) cells; format: functional
[7] = system: K562; experiment: Growth inhibition of human K562 cells; format: functional
[8] = system: MOLT-4; experiment: Growth inhibition of human MOLT4 cells; format: functional
[9] = system: RPMI-8226; experiment: Growth inhibition of human RPMI8226 cells; format: functional
[10] = system: SR; experiment: Growth inhibition of human SR cells; format: functional
[11] = system: A549; experiment: Growth inhibition of human A549 cells; format: functional
[12] = system: EKVX; experiment: Growth inhibition of human EKVX cells; format: functional
[13] = system: HOP-62; experiment: Growth inhibition of human HOP62 cells; format: functional
[14] = system: NCI-H322M; experiment: Growth inhibition of human NCI-H322M cells; format: functional
[15] = system: NCI-H460; experiment: Growth inhibition of human NCI-H460 cells; format: functional
[16] = system: NCI-H522; experiment: Growth inhibition of human NCI-H522 cells; format: functional
[17] = system: COLO 205; experiment: Growth inhibition of human COLO 205 cells; format: functional
[18] = system: HCC 2998; experiment: Growth inhibition of human HCC2998 cells; format: functional
[19] = system: HCT-116; experiment: Growth inhibition of human HCT116 cells; format: functional
[20] = system: HCT-15; experiment: Growth inhibition of human HCT15 cells; format: functional
[21] = system: HT-29; experiment: Growth inhibition of human HT29 cells; format: functional
[22] = system: KM12; experiment: Growth inhibition of human KM12 cells; format: functional
[23] = system: SW-620; experiment: Growth inhibition of human SW620 cells; format: functional
[24] = system: SF-268; experiment: Growth inhibition of human SF268 cells; format: functional
[25] = system: SF-539; experiment: Growth inhibition of human SF539 cells; format: functional
[26] = system: SNB-19; experiment: Growth inhibition of human SNB19 cells; format: functional
[27] = system: SNB-75; experiment: Growth inhibition of human SNB75 cells; format: functional
[28] = system: U-251; experiment: Growth inhibition of human U251 cells; format: functional
[29] = system: LOX IMVI; experiment: Growth inhibition of human LOX IMVI cells; format: functional
[30] = system: Malme-3M; experiment: Growth inhibition of human MALME-3M cells; format: functional
[31] = system: M14; experiment: Growth inhibition of human M14 cells; format: functional
[32] = system: SK-MEL-2; experiment: Growth inhibition of human SK-MEL-2 cells; format: functional
[33] = system: SK-MEL-28; experiment: Growth inhibition of human SK-MEL-28 cells; format: functional
[34] = system: SK-MEL-5; experiment: Growth inhibition of human SK-MEL-5 cells; format: functional
[35] = system: UACC-257; experiment: Growth inhibition of human UACC257 cells; format: functional
[36] = system: UACC-62; experiment: Growth inhibition of human UACC62 cells; format: functional
[37] = system: IGROV-1; experiment: Growth inhibition of human IGROV1 cells; format: functional
[38] = system: OVCAR-3; experiment: Growth inhibition of human OVCAR-3 cells; format: functional
[39] = system: OVCAR-4; experiment: Growth inhibition of human OVCAR4 cells; format: functional
[40] = system: OVCAR-5; experiment: Growth inhibition of human OVCAR5 cells; format: functional
[41] = system: OVCAR-8; experiment: Growth inhibition of human OVCAR8 cells; format: functional
[42] = system: SK-OV-3; experiment: Growth inhibition of human SK-OV-3 cells; format: functional
[43] = system: 786-0; experiment: Growth inhibition of human 786-0 cells; format: functional
[44] = system: ACHN; experiment: Growth inhibition of human ACHN cells; format: functional
[45] = system: CAKI-1; experiment: Growth inhibition of human CAKI1 cells; format: functional
[46] = system: RXF 393; experiment: Growth inhibition of human RXF 393 cells; format: functional
[47] = system: SN12C; experiment: Growth inhibition of human SN12C cells; format: functional
[48] = system: TK-10; experiment: Growth inhibition of human TK10 cells; format: functional
[49] = system: UO-31; experiment: Growth inhibition of human UO31 cells; format: functional
[50] = Growth inhibition of human HS 578T cells; format: functional
[51] = system: DU-145; experiment: Growth inhibition of human DU145 cells; format: functional
[52] = system: MCF7; experiment: Growth inhibition of human MCF7 cells; format: functional
[53] = system: NCI/ADR-RES; experiment: Growth inhibition of human NCI/ADR-RES cells; format: functional
[54] = Growth inhibition of human 231/ATCC cells; format: functional
[55] = system: MDA-MB-435; experiment: Growth inhibition of human MDA-MB-435 cells; format: functional
[56] = system: BT-549; experiment: Growth inhibition of human BT549 cells; format: functional
[57] = system: T47D; experiment: Growth inhibition of human T47D cells; format: functional
[58] = system: MDA-MB-468; experiment: Growth inhibition of human MDA-MB-468 cells; format: functional
[59] = system: HOP-92; experiment: Growth inhibition of human HOP92 cells; format: functional
[60] = system: NCI-H226; experiment: Growth inhibition of human NCI-H226 cells; format: functional
[61] = system: NCI-H23; experiment: Growth inhibition of human NCI-H23 cells; format: functional

In the case of COc1cc(/C=C/C(=O)c2ccccc2O)ccc1OCCCCCOc1cc2c(cc1OC)C(=O)N1CCC[C@H]1C=N2, the deltaTm [1] is reported as 3.1 °C and the deltaTm [2] is reported as 5 °C.

Work on COc1cc(/C=C/C(=O)c2ccccc2O)ccc1OCCCCOc1cc2c(cc1OC)C(=O)N1CCC[C@H]1C=N2 yielded a deltaTm [1] of 1.7 °C and a deltaTm [2] of 2.1 °C.

Compound COc1cc(/C=C/C(=O)c2ccccc2O)ccc1OCCCCOc1cc2c(cc1OC)C(=O)N1CCC[C@H]1C(=O)N2 has a deltaTm [1] of 1 °C and a deltaTm [2] of 1.9 °C.

COc1cc2c(cc1O)N=C[C@@H]1CCCN1C2=O gave a deltaTm [1] of 0.3 °C, a deltaTm [2] of 0.7 °C and a CC50 [3] of 380 nM. The CC50 [4] was 330 nM.

COc1cc(/C=C/C(=O)c2ccccc2O)ccc1OCCCOc1cc2c(cc1OC)C(=O)N1CCC[C@H]1C=N2 showed a deltaTm [1] of 5 °C, a deltaTm [2] of 8.1 °C and a GI50 [5] of 21 nM. It also gave a GI50 [6] of 17 nM, a GI50 [7] of 26 nM and a GI50 [8] of 17 nM. The GI50 [9] was 25 nM, the GI50 [10] was 12 nM and the GI50 [11] was 31 nM. The GI50 [12] was 204 nM, the GI50 [13] was 39 nM and the GI50 [14] was 307 nM. The GI50 [15] was 34 nM, the GI50 [16] was 26 nM and the GI50 [17] was 27 nM. For the same compound, the GI50 [18] was 138 nM, the GI50 [19] was 33 nM and the GI50 [20] was 247 nM. For the same compound, the GI50 [21] was 30 nM, the GI50 [22] was 18 nM and the GI50 [23] was 19 nM. For the same compound, the GI50 [24] was 24 nM, the GI50 [25] was 28 nM and the GI50 [26] was 29 nM. It also gave a GI50 [27] of 36 nM, a GI50 [28] of 22 nM and a GI50 [29] of 18 nM. For the same compound, the GI50 [30] was 37 nM, the GI50 [31] was 46 nM and the GI50 [32] was 67 nM. For the same compound, the GI50 [33] was 20 nM, the GI50 [34] was 24 nM and the GI50 [35] was 112 nM. It also gave a GI50 [36] of 21 nM, a GI50 [37] of 18 nM and a GI50 [38] of 21 nM. For the same compound, the GI50 [39] was 61 nM, the GI50 [40] was 25 nM and the GI50 [41] was 36 nM. The GI50 [42] was 406 nM, the GI50 [43] was 25 nM and the GI50 [44] was 47 nM. For the same compound, the GI50 [45] was 25 nM, the GI50 [46] was 20 nM and the GI50 [47] was 28 nM. It also gave a GI50 [48] of 41 nM, a GI50 [49] of 105 nM and a GI50 [50] of 23 nM. The GI50 [51] was 25 nM, the GI50 [52] was 32 nM and the GI50 [53] was 308 nM. For the same compound, the GI50 [54] was 26 nM, the GI50 [55] was 19 nM and the GI50 [56] was 17 nM. For the same compound, the GI50 [57] was 29 nM, the GI50 [58] was 16 nM and the GI50 [59] was 44 nM. For the same compound, the GI50 [60] was 138 nM and the GI50 [61] was 39 nM.

COc1cc(/C=C/C(=O)c2ccccc2O)ccc1OCCCOc1cc2c(cc1OC)C(=O)N1CCC[C@H]1C(=O)N2 showed a deltaTm [1] of 2 °C and a deltaTm [2] of 3.5 °C.

COc1cc(/C=C/C(=O)c2ccccc2O)ccc1OCCCCCOc1cc2c(cc1OC)C(=O)N1CCC[C@H]1C(=O)N2 showed a deltaTm [1] of 7.1 °C and a deltaTm [2] of 9 °C.
